In publication PMC9465178, “Cinnamaldehyde derivatives act as antimicrobial agents against Acinetobacter baumannii through the inhibition of cell division” (Frontiers in Microbiology, 2022):
≈ marks a conversion by molar mass, not a printed value.

Assays:
[1] = tested on: A. baumannii ATCC 19606; assay: Checkerboard titration MIC with efflux pump inhibitor PAβN; type: cell-based; conditions: Acinetobacter baumannii, ATCC19606, A. baumannii ATCC 19606
Description: To determine if expression of efflux pumps would play a role in the efflux of the cinnamaldehyde derivatives leading to poor antimicrobial activity, interactions between PAβN and the LXC compounds were assessed by checkerboard titration assay. The checkerboard titration assay was performed as previously described ([Chai et al., 2020]). Briefly, PAβN was added in the first row and serially diluted in CaMH broth along the ordinate of the microwell plate while the LXC compounds were serially diluted along the abscissa. Bacterial suspension for A. baumannii ATCC 19606 or AB UW 5075 100 μL/well were added as described for the MIC assay. Bacterial growth was assessed at A600 nm between time 0 and 18 h (Cytation5® Cell Imaging Multi-Mode Reader, Bio-Tek®).

[2] = tested on: Enterobacter aerogenes ATCC 13408; assay: Antibacterial activity (MIC), microbroth dilution; type: cell-based; conditions: Klebsiella aerogenes, ATCC13408, read-out: Antibacterial activity (MIC)
Description: (§1) Reference bacterial strains were obtained from the American Type Culture Collection (ATCC). Vancomycin resistant Enterococcus faecium (VRE 734, wastewater isolate from the Venter Laboratory Collection) was isolated on Bile Esculin agar (Oxoid, Australia) containing 6 μg/mL vancomycin and identified using MALDI-TOF mass spectrometry (Bruker, Preston, Victoria, Australia, Australian Center for Antimicrobial Resistance Ecology). The Pseudomonas aeruginosa WT PAO1 and Escherichia coli with deletions of both acrA and acrB genes encoding drug efflux pumps were obtained from the Venter laboratory stock ([Welch et al., 2010]). The protocol for microbial growth was adopted from the European Committee on Antimicrobial Susceptibility Testing (EUCAST) ([European Committee for Antimicrobial Susceptibility Testing, 2016]).
(§2) Non-fastidious bacteria and clinical isolates were maintained in Mueller Hinton (MH) broth (Acumedia, United Kingdom) supplemented with 15% (v/v) glycerol (Chem-Supply, Australia), cultured on Mueller Hinton (MH) agar (Acumedia, United Kingdom) plated and incubated at 37°C. Fastidious bacteria were maintained in Brain Heart Infusion (BHI) broth (Acumedia, United Kingdom) supplemented with 15% (v/v) glycerol at −80°C. The fastidious bacteria were cultured on MH agar plates supplemented with 5% (v/v) lysed horse blood and 3% (v/v) fetal bovine serum and incubated at 30°C in the presence of 5% CO2. Drug susceptibility assays were carried out with the non-fastidious cultures grown in cation-adjusted Mueller Hinton (CaMH) broth (Becton Dickinson, France). Streptococcus pyogenes was grown in CaMH broth supplemented with 5% (v/v) lysed horse blood and 3% (v/v) fetal bovine serum whereas Enterococcus faecium was grown in BHI broth.
(§3) The minimum inhibitory concentrations (MICs) for all six compounds were determined using the microbroth dilution protocol as per EUCAST with an inoculum of approximately […] in an exponential growth phase ([European Committee for Antimicrobial Susceptibility Testing, 2016]). Bacterial suspension, 100 μL/well, was added to 100 μL/well of drug dilutions, then incubated for 18 h at 37°C. Fastidious bacterial suspensions were instead incubated at 30°C in the presence of 5% CO2. Bacterial growth was assessed by measuring the change in A600 nm between time 0 and 18 h (Cytation5® Cell Imaging Multi-Mode Reader, Bio-Tek®). Levofloxacin was used as the positive control. Assays were completed in duplicate in at least three independent experiments.

[3] = tested on: Escherichia coli ATCC 35218; assay: Antibacterial activity (MIC), microbroth dilution; type: cell-based; conditions: Escherichia coli, ATCC35218, read-out: Antibacterial activity (MIC)
Description: as §1, §2, §3

[4] = tested on: Escherichia coli WT BW 25113; assay: Antibacterial activity (MIC), microbroth dilution; type: cell-based; conditions: Escherichia coli, WTBW25113, read-out: Antibacterial activity (MIC)
Description: as §1, §2, §3

[5] = tested on: Klebsiella pneumoniae ATCC 13883; assay: Antibacterial activity (MIC), microbroth dilution; type: cell-based; conditions: Klebsiella pneumoniae, ATCC13883, read-out: Antibacterial activity (MIC)
Description: as §1, §2, §3

[6] = tested on: Pseudomonas aeruginosa ATCC 27853; assay: Antibacterial activity (MIC), microbroth dilution; type: cell-based; conditions: Pseudomonas aeruginosa, ATCC27853, read-out: Antibacterial activity (MIC)
Description: as §1, §2, §3

[7] = tested on: Pseudomonas aeruginosa WT PAO1; assay: Antibacterial activity (MIC), microbroth dilution; type: cell-based; conditions: Pseudomonas aeruginosa, PAO1, read-out: Antibacterial activity (MIC)
Description: as §1, §2, §3

[8] = tested on: Streptococcus pneumoniae (type 3, mucoid strain) ATCC 6303; assay: Antibacterial activity (MIC), microbroth dilution; type: cell-based; conditions: Streptococcus pneumoniae, ATCC6303, read-out: Antibacterial activity (MIC)
Description: as §1, §2, §3

[9] = tested on: Streptococcus pyogenes ATCC 10389; assay: Antibacterial activity (MIC), microbroth dilution; type: cell-based; conditions: Streptococcus pyogenes, ATCC10389, read-out: Antibacterial activity (MIC)
Description: as §1, §2, §3

[10] = tested on: Caenorhabditis elegans; assay: Nematode toxicity (survival); type: in vivo; conditions: 1 × and 2 × MIC, up to 72 h, 25°C
Description: Protocols for growing, harvesting, and synchronizing C. elegans have been previously described ([Porta-de-la-Riva et al., 2012]; [Chai et al., 2020]) and were performed with the following modifications. The nematodes were treated with LXC compounds 1 to 6 at 1 × and 2 × MIC with at least 3 replicates using a final DMSO concentration of 2% (v/v). The plate was incubated at 25°C and the number of live vs dead nematodes was enumerated every 24 h for 72 h. […] The percentage of living nematodes at each time point across 72 h was calculated to give the percentage of survival.
FIGURE 10 The LXC compounds (apart from compound 5) were not cytotoxic to C. elegans nematodes. (A–F) C. elegans nematodes were cultured on nematode growth media agar plate and harvested in optimized growth media, with E. coli as its primary source of nutrient. […] The nematodes were counted under a light microscope at 400× magnification and the live nematodes at 72 h was indicated as a fraction of the starting number of nematodes (percentage survival). The results are presented in mean percentage of survival ± SEM. Statistical analysis was performed using two-way ANOVA and the asterisks (*) represent statistical significance: LXC 41 (5) at time 72 h (*p < 0.05).

Cc1nc2ccccc2n1C(=O)/C=C/c1ccc(F)cc1 [Compound 2]
MIC ([1]; +PAβN 0 μg/mL): 128 µg/mL
MIC ([1]; +PAβN 50 μg/mL): 128 µg/mL
MIC ([1]; +PAβN 100 μg/mL): 32 µg/mL
MIC ([1]; +PAβN 200 μg/mL): 16 µg/mL
MIC [2]: > 256 µg/mL
MIC [3]: > 256 µg/mL
MIC [4]: > 256 µg/mL
MIC [5]: > 256 µg/mL
MIC [6]: > 256 µg/mL
MIC [7]: 256 µg/mL (≈ 913 µM)
MIC [8]: 256 µg/mL (≈ 913 µM)
MIC [9]: > 256 µg/mL
Toxicity toward C. elegans (survival) [10]: do not have in vivo toxicity in this model at 2 × MICs for up to 72 h

Cc1nc2ccccc2n1C(=O)/C=C/c1ccc(Cl)cc1Cl [Compound 6]
MIC ([1]; +PAβN 0 μg/mL): 64 µg/mL
MIC ([1]; +PAβN 50 μg/mL): 32 µg/mL
MIC ([1]; +PAβN 100 μg/mL): 16 µg/mL
MIC ([1]; +PAβN 200 μg/mL): 8 µg/mL
MIC [2]: > 256 µg/mL
MIC [3]: > 256 µg/mL
MIC [4]: > 256 µg/mL
MIC [5]: > 256 µg/mL
MIC [6]: > 256 µg/mL
MIC [7]: 256 µg/mL (≈ 773 µM)
MIC [8]: 256 µg/mL (≈ 773 µM)
MIC [9]: > 256 µg/mL
Toxicity toward C. elegans (survival) [10]: devoid of hemolytic activity and cytotoxicity against mammalian cells in vitro, as well as adverse activity in a Caenorhabditis elegans nematode model

Cc1nc2ccccc2n1C(=O)/C=C/c1ccccc1 [Compound 1]
MIC ([1]; +PAβN 0 μg/mL): 128 µg/mL
MIC ([1]; +PAβN 50 μg/mL): 128 µg/mL
MIC ([1]; +PAβN 100 μg/mL): 64 µg/mL
MIC ([1]; +PAβN 200 μg/mL): 32 µg/mL
MIC [2]: > 256 µg/mL
MIC [3]: > 256 µg/mL
MIC [4]: > 256 µg/mL
MIC [5]: > 256 µg/mL
MIC [6]: > 256 µg/mL
MIC [7]: 256 µg/mL (≈ 976 µM)
MIC [8]: 256 µg/mL (≈ 976 µM)
MIC [9]: > 256 µg/mL
Toxicity toward C. elegans (survival) [10]: do not have in vivo toxicity in this model at 2 × MICs for up to 72 h

Cc1nc2ccccc2n1C(=O)/C=C/c1ccc(Br)cc1 [Compound 4]
MIC ([1]; +PAβN 0 μg/mL): 32 µg/mL
MIC ([1]; +PAβN 50 μg/mL): 32 µg/mL
MIC ([1]; +PAβN 100 μg/mL): 8 µg/mL
MIC ([1]; +PAβN 200 μg/mL): 8 µg/mL
MIC [2]: > 256 µg/mL
MIC [3]: > 256 µg/mL
MIC [4]: > 256 µg/mL
MIC [5]: > 256 µg/mL
MIC [6]: 256 µg/mL (≈ 750 µM)
MIC [7]: > 256 µg/mL
MIC [8]: 256 µg/mL (≈ 750 µM)
MIC [9]: > 256 µg/mL

COc1ccc(/C=C/C(=O)n2c(C)nc3ccccc32)cc1OC [Compound 5]
MIC ([1]; +PAβN 0 μg/mL): 256 µg/mL
MIC ([1]; +PAβN 50 μg/mL): 128 µg/mL
MIC ([1]; +PAβN 100 μg/mL): 8 µg/mL
MIC ([1]; +PAβN 200 μg/mL): 8 µg/mL
MIC [2]: > 256 µg/mL
MIC [3]: > 256 µg/mL
MIC [4]: > 256 µg/mL
MIC [5]: > 256 µg/mL
MIC [6]: > 256 µg/mL
MIC [7]: > 256 µg/mL
MIC [8]: 256 µg/mL (≈ 794 µM)
MIC [9]: > 256 µg/mL
Toxicity toward C. elegans (survival) [10]: significant toxicity (p < 0.05) but only after 72 h treatment

Cc1nc2ccccc2n1C(=O)/C=C/c1ccc(Cl)cc1 [Compound 3]
MIC ([1]; +PAβN 0 μg/mL): 128 µg/mL
MIC ([1]; +PAβN 50 μg/mL): 128 µg/mL
MIC ([1]; +PAβN 100 μg/mL): 8 µg/mL
MIC ([1]; +PAβN 200 μg/mL): 8 µg/mL
MIC [2]: > 256 µg/mL
MIC [3]: > 256 µg/mL
MIC [4]: > 256 µg/mL
MIC [5]: > 256 µg/mL
MIC [6]: > 256 µg/mL
MIC [7]: > 256 µg/mL
MIC [8]: 256 µg/mL (≈ 863 µM)
MIC [9]: > 256 µg/mL
Toxicity toward C. elegans (survival) [10]: do not have in vivo toxicity in this model at 2 × MICs for up to 72 h
